Test results from article PMC8467595, “Protective Effects of Linearthin and Other Chalcone Derivatives from Aspalathus linearis (Rooibos) against UVB Induced Oxidative Stress and Toxicity in Human Skin Cells” (Plants, 2021).
≈ marks a conversion by molar mass, not a printed value. Where two headings read alike, the source gives them in different places.

Key:
HaCaT cells [1] = test: MTT cytotoxicity assay, pre-treatment 4 or 24 h with or without UVB irradiation; assay type: cell-based; settings: Homo sapiens, read-out: IC50 (50% inhibition of viable cell number, MTT)
Procedure: (§1) The human epidermal keratinocytes (HaCaT) and melanoma (SK-MEL-1) cells used in this study were cultured in Roswell Park Memorial Institute (RPMI) 1640 media supplemented with antibiotics (100 U/mL streptomycin, 100 U/mL penicillin) and fetal calf serum (FCS, 10%). Cells were maintained at 37 °C in a humidified atmosphere of 5% CO2.
(§2) For experiments, before exposure to UVB, the cells were conditioned with various concentrations of total extract and isolated compounds thereof for 4 or 24 h. These periods were selected based on the half-life of the compounds as well as previous studies. Exposure to UVB was done according to a previous study. Cells were seeded (3 × 10^4) in 96-well tissue culture microtitre plates. Cell culture media was aspirated and the cells were overlayed with PBS. The cells were exposed to UVB light (80 mJ/cm^2) without the plastic lid. A UVIlink UV Crosslinker (UVitek Ltd., Aberdeen, UK) was fitted with six 8 Watt UV tubes giving a wavelength of 302 nm (Vilber Lourmat, Collégien, France). Control plates were not exposed to UVB light.
(§3) The MTT assay has been extensively used for determining the cytoprotective effects of several phytochemicals. To monitor cell viability as a measure of metabolic activity the MTT assay was performed. The conditioned HaCat and SK-MEL-1 cells (15,000 cells per well in 96-well plates) were incubated for 2 h using 100 μL MTT solution (5 mg/mL) after PBS washing. The MTT formazan crystals were then solubilised by DMSO resuspension. The optical density of the formazan product was read at 570 nm wavelength with a reference wavelength of 690 nm. The half-maximal inhibitory concentration (IC50) was determined.

SK-MEL-1 cells [2] = test: as above; assay type: cell-based; settings: Homo sapiens, read-out: IC50 (50% inhibition of viable cell number, MTT)
Procedure: as §1, §2, §3

HaCaT cells [3] = test: Caspase 3/7 activation (ApoTox-Glo Triplex Assay); assay type: cell-based, human; settings: UVB irradiated cells
Procedure: as §2
(§4) The ApoTox-Glo™ Triplex Assay (Promega) was used to assess cytotoxicity and apoptosis events in the same cell-based assay well according to the manufacturer’s instructions with no deviation from standard protocol. Both luminescence and fluorescence were detected using a plate reader.

SK-MEL-1 cells [4] = test: Caspase 3/7 activation (ApoTox-Glo Triplex Assay); assay type: cell-based, human; settings: SK-MEL-1, UVB irradiated cells
Procedure: as §2, §4

HaCaT cells [5] = test: TBARS lipid peroxidation (MDA); assay type: cell-based, human; settings: for MDA levels (lipid peroxidation): HaCaT
Procedure: as §2
(§5) The thiobarbituric acid reactive substances (TBARS) was used to quantify the levels of melondialdehyde (a marker of lipid peroxidation) in the supernatant of UVB irradiated and non-irradiated cells. The experiments were conducted as previously described. The optical density was measured at 532 nm with a reference wavelength of 600 nm using a plate reader. The mean optical density of five samples per treatment was calculated and divided by the absorption coefficient (156 mM^−1). Results were expressed as MDA concentration (μM). Reduced glutathione (GSH) was quantified using an in-house protocol with minor modifications. After the addition of reagents, the cells were lysed to allow quantification of GSH colourimetrically using a plate reader.

HaCaT cells [6] = test: ATP bioluminescent assay (Cell Titer-Glo); assay type: cell-based, human; settings: for ATP vs control cell levels: 24 h pre-exposure, UVB irradiated cells
Procedure: as §2
The ATP bioluminescent assay was used to quantify cellular ATP. The Cell Titer-Glo® assay (Promega, Madison, WI, USA) was carried out according to the manufacturer’s instructions. Cells were seeded in a white microtitre plate (20,000 cells per well) to which the ATP Cell Titer-Glo® Reagent was added (50 μL). The plate was incubated for 30 min at room temperature (RT) in the dark. Luminescence was measured on a Multiskan Spectrum plate reader (Thermo Fisher Scientific, Waltham, MA, USA). Luminescence is proportional to ATP levels and expressed as relative light units (RLU).

SK-MEL-1 cells [7] = test: TBARS lipid peroxidation (MDA); assay type: cell-based, human; settings: SK-MEL-1, 24-h pre-treatment, after UVB exposure
Procedure: For experiments, before exposure to UVB, the cells were conditioned with various concentrations of total extract and isolated compounds thereof for 4 or 24 h. […] Exposure to UVB was done according to a previous study. Cells were seeded (3 × 10^4) in 96-well tissue culture microtitre plates. Cell culture media was aspirated and the cells were overlayed with PBS. The cells were exposed to UVB light (80 mJ/cm^2) without the plastic lid. A UVIlink UV Crosslinker (UVitek Ltd., Aberdeen, UK) was fitted with six 8 Watt UV tubes giving a wavelength of 302 nm (Vilber Lourmat, Collégien, France) [22]. Control plates were not exposed to UVB light. The thiobarbituric acid reactive substances (TBARS) was used to quantify the levels of melondialdehyde (a marker of lipid peroxidation) in the supernatant of UVB irradiated and non-irradiated cells. The experiments were conducted as previously described [45]. The optical density was measured at 532 nm with a reference wavelength of 600 nm using a plate reader. The mean optical density of five samples per treatment was calculated and divided by the absorption coefficient (156 mM^−1). Results were expressed as MDA concentration (μM).

SK-MEL-1 cells [8] = test: ATP bioluminescent assay (Cell Titer-Glo); assay type: cell-based, human; settings: SK-MEL-1, 10 µg/mL, 24-h pre-treatment
Procedure: For experiments, before exposure to UVB, the cells were conditioned with various concentrations of total extract and isolated compounds thereof for 4 or 24 h. These periods were selected based on the half-life of the compounds as well as previous studies [22, 32]. Exposure to UVB was done according to a previous study. Cells were seeded (3 × 10^4) in 96-well tissue culture microtitre plates. Cell culture media was aspirated and the cells were overlayed with PBS. The cells were exposed to UVB light (80 mJ/cm^2) without the plastic lid. A UVIlink UV Crosslinker (UVitek Ltd., Aberdeen, UK) was fitted with six 8 Watt UV tubes giving a wavelength of 302 nm (Vilber Lourmat, Collégien, France) [22]. Control plates were not exposed to UVB light. The ATP bioluminescent assay was used to quantify cellular ATP. The Cell Titer-Glo® assay (Promega, Madison, WI, USA) was carried out according to the manufacturer’s instructions. Cells were seeded in a white microtitre plate (20,000 cells per well) to which the ATP Cell Titer-Glo® Reagent was added (50 μL). The plate was incubated for 30 min at room temperature (RT) in the dark. Luminescence was measured on a Multiskan Spectrum plate reader (Thermo Fisher Scientific, Waltham, MA, USA). Luminescence is proportional to ATP levels and expressed as relative light units (RLU).

HaCaT cells [9] = test: Reduced glutathione (GSH) quantification; assay type: cell-based, human
Procedure: as §2, §5

SK-MEL-1 cells [10] = test: Reduced glutathione (GSH) quantification; assay type: cell-based, human; settings: SK-MEL-1 pre-treated cells
Procedure: as §2, §5

[11] = light or radiation study, UVB irradiation after pre-treatment 4 h
[12] = light or radiation study, UVB irradiation after pre-treatment 24 h
[13] = SK-MEL-1, SK-MEL-1, No UV, pre-treatment 4 h
[14] = SK-MEL-1, SK-MEL-1, No UV, pre-treatment 24 h
[15] = SK-MEL-1, light or radiation study, SK-MEL-1, UVB irradiation after pre-treatment 4 h
[16] = SK-MEL-1, light or radiation study, SK-MEL-1, UVB irradiation after pre-treatment 24 h

SMILES	IC50 (HaCaT cells [1]; No UV, pre-treatment 4 h) [µg/mL]	IC50 (HaCaT cells [1]; No UV, pre-treatment 24 h) [µg/mL]	IC50 (HaCaT cells [1]; [11]) [µg/mL]	IC50 (HaCaT cells [1]; [12]) [µg/mL]	IC50 (SK-MEL-1 cells [2]; [13]) [µg/mL]	IC50 (SK-MEL-1 cells [2]; [14]) [µg/mL]	IC50 (SK-MEL-1 cells [2]; [15]) [µg/mL]	IC50 (SK-MEL-1 cells [2]; [16]) [µg/mL]	caspase 3/7 activation (HaCaT cells [3])	caspase 3/7 activation (SK-MEL-1 cells [4])	MDA levels (lipid peroxidation) (HaCaT cells [5]; 4-h pre-treatment, UVB exposed, vs cells with no isolate intervention)	MDA formation by UVB vs cells not exposed to UVB (HaCaT cells [5]; lowest concentration, 4-h pre-treatment, cell line not given)	ATP vs control cell levels (HaCaT cells [6])	MDA levels (lipid peroxidation) (SK-MEL-1 cells [7])	ATP in UVB irradiated vs non-UVB irradiated cells (SK-MEL-1 cells [8])	GSH content (HaCaT cells [9]; pre-treatment 4 h, UVB exposed and non-exposed cells)	GSH levels (HaCaT cells [9]; pre-treatment 24 h)	GSH levels, resistance to UVB irradiation (SK-MEL-1 cells [10])	MDA levels (lipid peroxidation) (HaCaT cells [5]; 24-h pre-treatment, after UVB exposure)	ATP in UVB irradiated vs non-irradiated cells (HaCaT cells [6]; 100 µg/mL)
O=C(CCc1ccc(O)c(O)c1)c1c(O)cc(O)c2c1OC1(C2)O[C@@H](CO)[C@H](O)[C@H]1O (relative stereo) [Compound 1, linearthin]	117 (≈ 269 µM)	105 (≈ 242 µM)	266 (≈ 612 µM)	282 (≈ 649 µM)	330 (≈ 759 µM)	124 (≈ 285 µM)	248 (≈ 572 µM)	143 (≈ 328 µM)	inhibited the activation of executioner caspases in a dose-dependent manner	inhibited the activation of executioner caspases in a dose-dependent manner	only the lowest concentration reduced MDA significantly	circumvent MDA formation by UVB to below levels observed in cells not exposed to UVB	maintain ATP above control cell levels	–	–	–	–	–	–	–
O=C(CCc1ccc(O)c(O)c1)c1c(O)cc(O)c(C2OC(CO)C(O)C(O)C2O)c1O (stereo not drawn) [Compound 2, aspalathin]	209 (≈ 462 µM)	122 (≈ 270 µM)	399 (≈ 882 µM)	145 (≈ 321 µM)	93.6 (≈ 207 µM)	66.4 (≈ 147 µM)	72.2 (≈ 160 µM)	70 (≈ 155 µM)	inhibited the activation of executioner caspases in a dose-dependent manner	inhibited the activation of executioner caspases in a dose-dependent manner	–	–	–	significant (p < 0.05) reduction in MDA levels at all tested concentrations	significantly increase ATP to above levels observed in non-UVB irradiated cells	only active at the lowest concentration tested	only active at the lowest concentration tested	improved GSH levels	significant (p < 0.05) reduction in MDA levels at all tested concentrations	–
O=C(CCc1ccc(O)cc1)c1c(O)cc(O)c(C2OC(CO)C(O)C(O)C2O)c1O (stereo not drawn) [Compound 3, nothofagin]	144 (≈ 330 µM)	123 (≈ 282 µM)	196 (≈ 450 µM)	164 (≈ 376 µM)	208 (≈ 477 µM)	210 (≈ 482 µM)	119 (≈ 273 µM)	123 (≈ 282 µM)	inhibited the activation of executioner caspases in a dose-dependent manner	inhibited the activation of executioner caspases in a dose-dependent manner	–	–	maintain ATP above control cell levels	–	significantly increase ATP to above levels observed in non-UVB irradiated cells	–	–	–	–	increase ATP in UVB irradiated cells to above levels observed in non-irradiated cells
